Results on 1 compound are retold here after the NIST ThermoML archive (doi:10.1016/j.tca.2011.02.016).

For data set [1] the following is noted: 298.15 K; 101.33 kPa; Liquid; Pycnometric method.
Data set [2] is described as follows: molar heat capacity at constant pressure. The note with it: 298.15 K; 101.33 kPa; Liquid; Small sample (50 mg) DSC.

Numbers after ± are expanded uncertainties.

Consider `Cn1cc[n+](CCO)c1.N#C[N-]C#N` [3-(2-hydroxyethyl)-1-methyl-1H-imidazol-3-ium dicyanoazanide], for which, in data set [1], the mass density is recorded as 1120 ± 10 kg/m3. For the same compound, in data set [2], the “molar heat capacity at constant pressure” value is given as 231.85 ± 3.9 J/K/mol.
